Laboratory results as given in US7691579B2, “Methods and compositions for producing an enhanced immune response to a human papillomavirus immunogen” (priority 2005, dated 2010).
“Also recorded” adds a separate entry of the source.

B1: IL-2: murine IL-2 (Preprotech) (protein, UniProt P04351 21-169, looked up)
Interleukin-2: APTSSSTSSSTAEAQQQQQQQQQQQQHLEQLLMDLQELLSRMENYRNLKLPRMLTFKFYLPKQATELKDLQCLEDELGPLRHVLDLTQSKSFQLEDAENFISNIRVTVVKLKGSDNTFECQFDDESATVVDFLRRWIAFCQSIISTSPQ

What was measured:
HLA-A2 = biological target: T1, HLA-A2 (Homo sapiens, UniProt P04439, D140Y/D185E/D98H/E176V/E277Q/G131W/G231S/I119V/I121R/I166T/I218V/L300P/L318F/N151K/N90K/P208A/P217A/Q86G/Q94H/R138H/R169H/T345S); assay: T2 binding assay (HLA-A2 stabilisation on T2 cells, fluorescence index)
T1 construct: The T2 cell expresses HLA-A2 and is TAP1 and TAP2 deficient; endogenous in cells; host or cells: T2 cells
Description: The sequences are derived from HPV 16 E2. T2 cells were loaded with various concentrations of peptides. Level of surface class I molecules were assessed by flow cytometric analysis using mouse monoclonal antibodies specific for HLA-A2. Fluorescence index=Fluorescence after peptide stimulation/Fluorescence without peptide −1.
Since little was known about the MHC class I epitopes for E2, HLA-A2 binding sequences derived from HPV 16 E2 were investigated. […] To test the binding affinity of these peptides to HLA-A2, a T2 binding assay was performed. The T2 cell expresses HLA-A2 and is TAP1 and TAP2 deficient.

[1] = system: C1R.ADD target cells pulsed with E2 peptides; assay: IFN-gamma ELISPOT assay in immunized AAD mice, response to E2; assay type: in vivo, HLA-A2 transgenic mice (AAD); conditions: for T cell response to E2 (IFN-gamma ELISPOT), in words / IFN-gamma producing cells (ELISPOT): AAD mice; for T cell response to E2 (IFN-gamma ELISPOT), in words: protocol as labelled; for IFN-gamma producing cells (ELISPOT): E2 peptides + GM-CSF + anti-CD40 in IFA, boosted with E2 peptides in IFA
From the text: AAD Mice were immunized with three E2 peptides. […] A target cell, C1R.ADD, was pulsed with peptides. C1R.ADD alone was used as negative control, and E7 86-93 was used as a specificity control. Mice are immunized with the indicated 1st immunization and are then given the indicated 2nd immunization (booster immunization) four weeks later. The G1, G2, and G3 immunization protocols employed are as follows: G1 (1st immunization: IFA+GM-CSF+anti-CD40 antibody+E2 peptides; 2nd immunization: IFA+E2 peptides); G2 (1st immunization: IFA+GM-CSF+anti-CD40 antibody+E2 peptides; 2 immunization: none); G3 (1st immunization: none; 2nd immunization: IFA+E2 peptides).
AAD Mice were immunized with different combinations of VLP-E7E2 and E2 peptides with/without Gm-CSF and αCD40. Target cells were pulsed with E2 peptide. Immunization with E7 11-20 peptides is used as a control. The G1 and G2 immunization protocols employed are as follows: G1 (1st immunization: IFA+GM-CSF+anti-CD40 antibody+E2 69-77 peptides); G2 (1st immunization: L1-VLP-L2-E2-E7+GM-CSF+anti-CD40 antibody).
Target cells are C1R.ADD cells pulsed with the indicated peptides.
(§1) Immunization: Mice were immunized subcutaneously at the base of the tail with the chimeric VLPs. GM-CSF (Preprotech, Rocky Hill, N.J.) was given the day before and the same day as the VLP injection. Anti-CD40 (SouthernBiotech, Birmingham Ala.) was given with the VLP. Mice were also immunized with 50 nmoles of peptide in incomplete Freund's adjuvant (IFA) with or without GM-CSF (5 μg/mouse) and anti-CD40 (10 μg/mouse). All vaccines were prepared immediately prior to injection. Each group had 4 mice, and the pooled spleen cells from four mice were used for assays. 10 μg of VLP-E7E2 was given to a mouse. The MW of the VLP-E7E2 is about 5280 Kd (72×L1@55 Kd=3960 Kd, and 12×L2E7E2@110 kd=1320 Kd). The number of moles of VLP-E7E2 in 10 μg of total protein is about […].
ELISPOT assay: The number of IFN-gamma-producing cells is also determined by ELISPOT assay. The anti-IFN-gamma antibody, 5 μg/ml, in PBS are coated on Millipore's multiscreen-HA plate (Millipore, Marlborough, Mass.) overnight at 4° C. The plate is blocked by incubation in RPMI containing 10% FCS for 3 hours at room temperature, and then the plate is washed two or three times with PBS. Target cells, EL-4 or C1R.ADD, are incubated with or without peptides for 2 hour at room temperature, washed twice. Then, they were placed at 5,000 per well. The effector cells were from 40,000 to 50,000 per well. After a 20 hour incubation period at 37° C., the plate is washed six times with PBS containing 0.05% Tween 20. The biotin-labeled anti-IFN-gamma, at 2 μg/ml, is added to the plate. After a 3 hour incubation period at room temperature, the plate is washed six times, and developed using an ABC kit from Vector Lab (Burlingame, Calif.). The spots are counted using Immunspot™ CTL (Cleveland Ohio). Data are expressed as an average from triplicate wells.
Induction of CD8+ T Cell Response to E2 Peptides. […] One group of mice was boosted with E2 peptides in IFA emulsion (IFA-E2) two weeks later. An IFN-gamma ELISPOT assay was performed using spleen cells collected either two or four weeks after vaccination as shown in FIG. 14. The immunization protocol is shown in Table 4 below (50 nmoles of each immunogen was employed; “E2s” refers to E2 peptides).
Enhancing CTL Response to E2. […] When AAD mice were immunized with either 50 nmoles E2 69-77 with immune modulators in IFA or 24 pmoles of VLP-E7E2 with immune-modulators in aqueous solution, a marginal CD8+ T cell response to E2 was detected by ELISPOT assay using fresh isolated spleen cells from both groups of mice (FIG. 15, Panel A and Panel B). […]

[2] = system: wild type (SEQ ID NO: 1) and modified (SEQ ID NO: 9) E2 peptides; assay: Elispot assay of mice immunized with wild type or modified E2 138-147 peptide; assay type: in vivo; conditions: mice immunized with the labelled peptide
[3] = system: C1R.AAD target cells pulsed with E7 11-20 and E7 86-93 peptides; assay: CTL assay (51Cr release) with spleen cells of immunized AAD mice, response to E7; assay type: in vivo, HLA-A2 transgenic mice (AAD); conditions: co-injected in aqueous solution
Description: as §1
(§2) CTL assay: Two (or three) weeks after immunization, spleens were aseptically removed and single cell suspensions are prepared. […] Cytolytic activity of cells is measured by a 4-h assay with ^51Cr-labeled EL-4 or C1R.AAD target cells in triplicate wells. Percent ^51Cr release is calculated as 100×(experimental release-spontaneous release)/(maximum release-spontaneous release). Maximum release is determined from supernatants of cells that are lysed by addition of […]. Spontaneous release is determined from target cells culture in medium. Data are expressed as an average from triplicate wells. […]

[4] = system: EL-4 target cells pulsed with E7 49-57 peptides; assay: CTL assay (51Cr release) with spleen cells of immunized C57BL/6 mice; assay type: in vivo; conditions: given in aqueous solution with VLP-E7E2
Description: as §1, §2

Row | Molecule | binding to HLA-A2, in words (HLA-A2) | T cell response to E2 (IFN-gamma ELISPOT), in words [1] | concentration at FI 0.5 (HLA-A2) [µM] | IFN-gamma producing cells (ELISPOT) [1] [spots/million] | also measured
1 | TLQDVSLEV [E2 93-101, HPV 16 E2 peptide] | did not bind; also recorded: no binding activity | did not elicit a T cell response |  |  | 
2 | ALQAIELQL [E2 69-77, HPV 16 E2 peptide] | high binding affinity; also recorded: displayed binding ability | induce a CD8+ T cell response; also recorded: immunogenic | 50 | 32 | 
3 | RLNVCQDKIL [E2 7-16, HPV 16 E2 peptide] | no binding activity |  |  |  | 
4 | YLAEEASVTV [E2 138-147 modified] | higher HLA.A2 binding affinity |  |  |  | immune response to wild type and modified E2 peptides (Elispot) ([2]; listed as modified peptide (SEQ ID NO: 9)): elicit an immune response to both; immune response to wild type and modified E2 peptides (Elispot) ([2]; listed as new peptide (SEQ ID NO: 9)): more immunogenic
5 | YICEEASVTV [E2 138-147] | high binding affinity; also recorded: displayed binding ability | induce a CD8+ T cell response; also recorded: immunogenic | 50 | 53 | IFN-gamma production (ELISPOT), response to E2 ([1]; boosted with E2 peptides in IFA four weeks after the initial immunization): more immunogenic; immune response to wild type and modified E2 peptides (Elispot) [2]: failed to elicit an immune response
6 | B1 |  |  |  |  | effect of co-injection on the VLP-E7E2-induced CTL response to E7 [3]: no effect; effect on the VLP-E7E2 induced CTL response [4]: no effect
